Source: PubChem BioAssay AID328 (DTP/NCI, 2004)
Values joined by “and” are separate entries in the source; they are usually repeats but may differ in a detail not shown here. Equal entries are not always repeated. Inconclusive results and toxic doses are left out. Rule for the calls: active = survival T/C of 150% or more; inactive = T/C below 125% in these data.

Test system: BDF1 mice, P388 leukemia ip, median survival T/C
Test: NCI In Vivo Anticancer Drug Screen. Data for tumor model P388 Leukemia (intraperitoneal) in B6D2F1 (BDF1) mice
Details: endpoint: median survival time, higher = longer survival
How it was run: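 Transplantable tumour in mice; compound vs vehicle dosing; survival scored; ratio of treated to control reported.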

[1] = dose: 25.0 mg/kg/injection, schedule: Q01DX009 (ip), vehicle: Klucel (hydroxypropylcellulose) (HPC)
[2] = dose: 50.0 mg/kg/injection, schedule: Q01DX009 (ip), vehicle: Klucel (hydroxypropylcellulose) (HPC)
[3] = dose: 100.0 mg/kg/injection, schedule: Q01DX009 (ip), vehicle: Klucel (hydroxypropylcellulose) (HPC)
[4] = dose: 100.0 mg/kg/injection, schedule: Q04DX003 (ip), vehicle: saline
[5] = dose: 25.0 mg/kg/injection, schedule: Q01DX009 (ip), vehicle: other
[6] = dose: 100.0 mg/kg/injection, schedule: Q01DX009 (ip), vehicle: other
[7] = dose: 100.0 mg/kg/injection, schedule: Q04DX003 (ip), vehicle: Klucel (hydroxypropylcellulose) (HPC)
[8] = dose: 200.0 mg/kg/injection, schedule: Q04DX003 (ip), vehicle: Klucel (hydroxypropylcellulose) (HPC)
[9] = dose: 100.0 mg/kg/injection, schedule: Q04DX003 (ip), vehicle: saline with Tween-80
[10] = dose: 200.0 mg/kg/injection, schedule: Q04DX003 (ip), vehicle: saline with Tween-80
[11] = dose: 400.0 mg/kg/injection, schedule: Q04DX003 (ip), vehicle: saline with Tween-80

Measured: T/C

C[N+](C)(C)CC(O)CC#N (stereo unspecified)
inactive: dose: 12.5 mg/kg/injection, schedule: Q01DX009 (ip), vehicle: Klucel (hydroxypropylcellulose) (HPC) 100 % of control | [1] 100 % of control | [2] 90 % of control

CC(C)(C)OC(=O)NN=C1CCC(C(C)(C)C)CC1 (stereo unspecified)
inactive: dose: 83.75 mg/kg/injection, schedule: Q01DX001 (ip), vehicle: Klucel (hydroxypropylcellulose) (HPC) 95 % of control | dose: 100.0 mg/kg/injection, schedule: Q01DX009 (ip), vehicle: saline with Tween-80 109 % of control | dose: 150.0 mg/kg/injection, schedule: Q04DX003 (ip), vehicle: Klucel (hydroxypropylcellulose) (HPC) 100 % of control | dose: 167.5 mg/kg/injection, schedule: Q01DX001 (ip), vehicle: Klucel (hydroxypropylcellulose) (HPC) 100 % of control | dose: 225.0 mg/kg/injection, schedule: Q04DX003 (ip), vehicle: Klucel (hydroxypropylcellulose) (HPC) 100 % of control | dose: 335.0 mg/kg/injection, schedule: Q01DX001 (ip), vehicle: Klucel (hydroxypropylcellulose) (HPC) 95 % of control | dose: 335.0 mg/kg/injection, schedule: Q04DX003 (ip), vehicle: Klucel (hydroxypropylcellulose) (HPC) 90 % of control

CSc1ncnc2c1ncn2C1CCCO1 (stereo unspecified)
inactive: [1] 95 % of control | [2] 119 % of control | [3] 109 % of control | [4] 104 % of control | dose: 150.0 mg/kg/injection, schedule: Q01DX009 (ip), vehicle: Klucel (hydroxypropylcellulose) (HPC) 87 % of control

CC(C)CCc1cc(O)c(CCC(C)C)cc1O
inactive: dose: 0.78 mg/kg/injection, schedule: Q01DX009 (ip), vehicle: saline with Tween-80 101 % of control | dose: 1.56 mg/kg/injection, schedule: Q01DX009 (ip), vehicle: saline with Tween-80 102 % of control | dose: 3.12 mg/kg/injection, schedule: Q01DX009 (ip), vehicle: saline with Tween-80 102 % of control | dose: 6.25 mg/kg/injection, schedule: Q01DX009 (ip), vehicle: saline with Tween-80 104 % of control

C[C@@H]1O[C@@H](O[C@H]2CC[C@]3(C=O)[C@H]4CC[C@]5(C)[C@@H](c6ccc(=O)oc6)CC[C@]5(O)[C@@H]4CC[C@]3(O)C2)[C@H](O)[C@H](O)[C@H]1O[C@@H]1O[C@H](CO)[C@@H](O)[C@H](O)[C@H]1O
inactive: dose: 0.6 mg/kg/injection, schedule: Q01DX010 (ip), vehicle: carboxymethylcellulose (CMC) 95 % of control | dose: 1.2 mg/kg/injection, schedule: Q01DX010 (ip), vehicle: carboxymethylcellulose (CMC) 104 % of control | dose: 2.5 mg/kg/injection, schedule: Q01DX010 (ip), vehicle: carboxymethylcellulose (CMC) 95 % of control and 120 % of control | dose: 5.0 mg/kg/injection, schedule: Q01DX010 (ip), vehicle: carboxymethylcellulose (CMC) 100 % of control

O=C1c2ccccc2C(=O)c2c(NCCCCCO)ccc(NCCCCCO)c21
inactive: [5] 88 % of control | [6] 88 % of control

Brc1csc2ncccc12
inactive: [7] 90 % of control | [8] 109 % of control

CCCCCCCC(=O)NN
inactive: dose: 3.12 mg/kg/injection, schedule: Q01DX009 (ip), vehicle: other 96 % of control | dose: 6.25 mg/kg/injection, schedule: Q01DX009 (ip), vehicle: other 98 % of control | dose: 12.5 mg/kg/injection, schedule: Q01DX009 (ip), vehicle: other 99 % of control | [5] 117 % of control | dose: 50.0 mg/kg/injection, schedule: Q01DX009 (ip), vehicle: other 117 % of control | dose: 50.0 mg/kg/injection, schedule: Q04DX003 (ip), vehicle: water 91 % of control | [6] 92 % of control | dose: 100.0 mg/kg/injection, schedule: Q04DX003 (ip), vehicle: water 124 % of control | dose: 200.0 mg/kg/injection, schedule: Q01DX009 (ip), vehicle: other 97 % of control

COc1ccccc1OC(=O)Nc1ccccc1F
inactive: [9] 90 % of control | [10] 90 % of control | [11] 100 % of control

C=C(C)C1CC2(C)C(C)CC(O)CC2C(OC(=O)C=C(C)C)C1O (stereo unspecified)
inactive: dose: 0.75 mg/kg/injection, schedule: Q01DX009 (ip), vehicle: saline 94 % of control | dose: 1.5 mg/kg/injection, schedule: Q01DX009 (ip), vehicle: saline 94 % of control | dose: 3.0 mg/kg/injection, schedule: Q01DX009 (ip), vehicle: saline 103 % of control | dose: 6.0 mg/kg/injection, schedule: Q01DX009 (ip), vehicle: saline 89 % of control

C=C(C)C12OC3(c4ccccc4)OC1C1C4OC4(CO)C(O)C4(O)C(=O)C(C)=CC4C1(O3)C(C)C2O (stereo unspecified)
inactive: dose: 25.0 micrograms/kg/injection, schedule: Q01DX009 (ip), vehicle: saline + alcohol 95 % of control and 102 % of control | dose: 50.0 micrograms/kg/injection, schedule: Q01DX009 (ip), vehicle: saline + alcohol 93 % of control | dose: 100.0 micrograms/kg/injection, schedule: Q01DX009 (ip), vehicle: saline + alcohol 107 % of control | dose: 200.0 micrograms/kg/injection, schedule: Q01DX009 (ip), vehicle: saline + alcohol 103 % of control and 110 % of control | dose: 800.0 micrograms/kg/injection, schedule: Q01DX009 (ip), vehicle: saline + alcohol 116 % of control | dose: 1600.0 micrograms/kg/injection, schedule: Q01DX009 (ip), vehicle: saline + alcohol 106 % of control

CCCC(O)(CCC)CC(=O)OCC
inactive: dose: 100.0 mg/kg/injection, schedule: Q04DX003 (ip), vehicle: saline sonified 104 % of control | dose: 200.0 mg/kg/injection, schedule: Q04DX003 (ip), vehicle: saline sonified 109 % of control | dose: 400.0 mg/kg/injection, schedule: Q04DX003 (ip), vehicle: saline sonified 113 % of control

CC(=O)OCCN1c2ccccc2Sc2cnccc21
inactive: [9] 104 % of control | [10] 90 % of control | [11] 95 % of control

Cc1cc(N(C)C)cc(C)c1/C=C\c1ccnc2ccccc12
inactive: dose: 100.0 mg/kg/injection, schedule: Q04DX002 (ip), vehicle: saline with Tween-80 112 % of control | dose: 200.0 mg/kg/injection, schedule: Q04DX002 (ip), vehicle: saline with Tween-80 107 % of control | dose: 400.0 mg/kg/injection, schedule: Q04DX002 (ip), vehicle: saline with Tween-80 117 % of control

CC1CCC2(C(=O)O)CCC3(C)C(=CCC4C5(C)CCC(O)C(C)(C)C5CCC43C)C2C1C (stereo unspecified)
inactive: dose: 100.0 mg/kg/injection, schedule: Q01DX010 (ip), vehicle: acetone 120 % of control | dose: 200.0 mg/kg/injection, schedule: Q01DX010 (ip), vehicle: acetone 115 % of control | dose: 400.0 mg/kg/injection, schedule: Q01DX010 (ip), vehicle: acetone 120 % of control

Nc1ccc(C(=O)Nc2ccc(Nc3ccncc3)cc2)cc1
inactive: [3] 109 % of control | [7] 104 % of control | dose: 200.0 mg/kg/injection, schedule: Q01DX009 (ip), vehicle: Klucel (hydroxypropylcellulose) (HPC) 118 % of control | [8] 104 % of control | dose: 400.0 mg/kg/injection, schedule: Q01DX009 (ip), vehicle: Klucel (hydroxypropylcellulose) (HPC) 118 % of control | dose: 400.0 mg/kg/injection, schedule: Q04DX003 (ip), vehicle: Klucel (hydroxypropylcellulose) (HPC) 100 % of control

COc1cc2c(cc1OC)CC[N+](C)=C2
inactive: dose: 3.12 mg/kg/injection, schedule: Q01DX009 (ip), vehicle: saline 102 % of control | dose: 3.12 mg/kg/injection, schedule: Q04DX003 (ip), vehicle: saline 104 % of control | dose: 6.25 mg/kg/injection, schedule: Q01DX009 (ip), vehicle: saline 105 % of control | dose: 6.25 mg/kg/injection, schedule: Q04DX003 (ip), vehicle: saline 97 % of control and 122 % of control | dose: 12.5 mg/kg/injection, schedule: Q01DX009 (ip), vehicle: saline 102 % of control | dose: 12.5 mg/kg/injection, schedule: Q04DX003 (ip), vehicle: saline 95 % of control and 97 % of control | dose: 25.0 mg/kg/injection, schedule: Q01DX009 (ip), vehicle: saline 102 % of control | dose: 25.0 mg/kg/injection, schedule: Q04DX003 (ip), vehicle: saline 91 % of control | dose: 50.0 mg/kg/injection, schedule: Q01DX009 (ip), vehicle: saline 91 % of control | dose: 50.0 mg/kg/injection, schedule: Q04DX003 (ip), vehicle: saline 121 % of control | [4] 100 % of control

Nc1cc2c3ccccc3ncc2c2ccccc12
inactive: [9] 100 % of control | [10] 100 % of control | [11] 100 % of control
